Experimental data: paper PMC9050848, “Carbamoyl-N-aryl-imine-urea: a new framework to obtain a putative leishmanicidal drug-candidate” (RSC Advances, 2020)

Experiment: Plasma stability (UPLC-MS/MS recovery)
Type: in vitro ADME
Settings: 37 °C, rat plasma diluted 1:1 with PBS pH 7.4, read-out: Compound recovery after incubation with rat plasma
Method: To investigate the potential plasma instability of the carbamoyl-N-arylimine-urea subunit, designed as a new peptide mimetic framework, compound 10e (LASSBio-1736) was selected to investigate its plasma stability,[21,22] previously to the evaluation of its in vivo leishmanicidal effect. Quantitation of 10e (LASSBio-1736), benzocaine standard (positive control; it means a substrate drug for plasma hydrolysis) and ketoconazole (internal standard) was determined by UPLC-MS/MS, after incubation of the compounds at 0, 30, 60, 120 and 240 min with rat plasma, and measuring the peak areas in three different experiments.
For analysis of plasma stability, 5 μL (250 ng mL^−1) of a concentrated solution of 10e (LASSBio-1736) or the positive control benzocaine (stock concentration = 10 000 ng mL^−1 solubilized in DMSO) was added in 195 μL of rat plasma solution (1 : 1) diluted with PBS (pH 7.4). […] The supernatant (400 μL) were placed in 2 mL vials, and analyzed by UPLC-MS/MS. […]
Detection in single reaction monitoring (SRM) mode was used for determination of the LASSBio-1736 (10e) m/z 419.1 → 205.0, benzocaine m/z 166.1 → 137.9 and ketoconazole (IS) 532.1 → 490.3, with a tolerance of mass deviation of 6 ppm, operating in positive ionization mode. The data were acquired using TraceFinder 3.2. software (Thermo Fisher Scientific, Waltham, USA), and analyzed using GraphPad Prism 5 program.

CCOC(=O)c1ccc(N)cc1 [benzocaine, reference compound]
recovery at 4 h, 250 ng/mL: 38%
